Assay results reported in patent publication US20030050242A1, “Protein polymerization inhibitors and methods of use” (priority 1999, published 2003).
Like-named read-outs stand apart in the source and are kept apart here. Marks after values point to notes of the source that are not given here. Ends that are not written are not given here. Peptide text beside a SMILES is read from it.

Experiments:
[1] = biological target: viral capsid protein (p24) of SIV (SIV)
[2] = biological target: viral capsid protein (p24) of HIV-2 (HIV-2)
HIV-1 [3] = settings: H9 cells, 100 μM, pos/neg
Procedure: (§1) Next, the ability of peptide agents to inhibit viral infection was evaluated. Accordingly, the peptide agents listed in Table 1 were used in several viral (e.g., HIV-1, HIV-2, and SIV) infection assays. […] Once inhibitory tripeptides were identified, more specific assays were conducted to determine the effect of varying concentrations of the selected tripeptides and combination treatments (e.g., the use of more than one modified tripeptide in combination).
(§2) To monitor the replication of virus, reverse transcriptase (RT) activity in the supernatants was assayed using a commercially available Lenti-RT activity kit. (Cavidi Tech, Uppsala, Sweden). The amount of RT was determined with the aid of a regression line of standards. […] Syncytium formation was also monitored by microscopic examination.

HIV-1 [4] = settings: summary of Experiments 1-6
Procedure: as §1

SIV = assay: viral infection assay in H9 cells, reverse transcriptase (RT) activity in supernatant; assay type: cell-based; settings: for Day 7 RT SIV / Day 10 RT SIV: H9 cells, 100 μM; for effect on SIV infection, in words: summary of the experiments in H9 cells
Procedure: as §1, §2
(§3) (Cavidi Tech). The amount of RT was determined with the aid of a regression line of standards.

HIV-2 = assay: as above; assay type: cell-based; settings: for Day 7 RT HIV-2 / Day 10 RT HIV-2: H9 cells, 100 μM; for effect on HIV-2 infection, in words: summary of the experiments in H9 cells
Procedure: as §1, §2, §3

HIV-1 [5] = settings: H9 cells, 100 μM
Procedure: Next, the ability of peptide agents to inhibit viral infection was evaluated. Accordingly, the peptide agents listed in Table 1 were used in several viral (e.g., HIV-1, HIV-2, and SIV) infection assays. The efficiency of HIV-1, HIV-2, and SIV infection was monitored by reverse transcriptase activity, the concentration of p24 protein in the cell supernatent, and by microscopic evaluation of HIV-1 syncytia formation. In initial experiments, several modified tripeptides were screened for the ability to inhibit HIV-1, HIV-2, and SIV infection in H9 cells.
In Experiments 1 and 2, approximately 200,000H9 cells were infected with HIV-1, HIV-2 or SIV at 25 TCID50 to test the inhibitory effect of the following synthesized tripeptides LKA-NH2, ILK-NH2, GPQ-NH2, GHK-NH2, GKG-NH2, ACQ-NH2, CQG-NH2, ARV-NH2, KAR-NH2, HKA-NH2, GAT-NH2, KAL-NH2, and GPG-NH2. Accordingly, the H9 cells were resuspended with or without the different peptides (approximately 100 μM) in 1 ml of RPMI 1640 medium supplemented with 10% (v/v) heat-inactivated fetal bovine serum (FBS), penicillin (100 u/ml), and streptomycin (100 u/ml), all available through GIBCO, and Polybrene (2 μg/ml), available through Sigma. Thereafter, viruses were added at 25 TCID50 in a volume of 20-30%1. Cells were incubated with virus at 37° C. for 1 hr then pelleted at 170× g for 7 minutes. The cells were then washed three times in RPMI medium without peptides at room temperature and pelleted at 170× g for 7 minutes, as above. After the final wash, the cells were resuspended in RPMI culture medium in a 24-well plate (Costar corporation) and kept at 37° C. in 5% CO2 with humidity.
Culture supernatants were collected and analyzed when the medium was changed at 4, 7, 10, and 14 days post infection. To monitor the replication of virus, reverse transcriptase (RT) activity in the supernatants was assayed using a commercially available Lenti-RT activity kit. […] The amount of RT was determined with the aid of a regression line of standards. The results are presented as absorbance values (OD) and higher absorbance indicates a higher protein concentration and greater viral infection. Syncytium formation was also monitored by microscopic examination.
In Experiment 3, (Table 5), approximately 200,000H9 cells were infected with HIV-1, HIV-2 or SIV at 25 TCID50 to test the inhibitory effect of different concentrations of peptides GPG-NH2, GKG-NH2 and CQG-NH2 and combinations of these peptides (the indicated concentration corresponds to the concentration of each tripeptide). As above, H9 cells were resuspended with or without the different peptides at varying concentrations in 1 ml of RPMI 1640 medium supplemented with 10% (v/v) heat-inactivated fetal bovine serum (FBS), penicillin (100 u/ml), and streptomycin (lOOu/ml), and Polybrene (2 μg/ml). Thereafter, viruses were added at 25 TCID50 in a volume of 20-30 μ. Cells were incubated with the indicated virus at 37° C. for 1 hr then pelleted at 170× g for 7 minutes. The cells were then washed three times in RPMI medium without peptides at room temperature and pelleted at 170× g for 7 minutes, as above. After the final wash, the cells were resuspended in RPMI culture medium in a 24-well plate (Costar corporation) and kept at 37° C. in 5% CO2 with humidity.
Culture supernatants were collected when the medium was changed at 4, 7, and 11 days post infection. As above, the replication of each virus was monitored by detecting reverse transcriptase (RT) activity in the supernatants using the Lenti-RT activity kit.

[6] = biological target: major capsid protein (p24) of HIV-1 (HIV-1, UniProt P04591); assay: cell-based or functional assay
[7] = Experiment 1, higher OD = greater infection

| Molecule | reverse transcriptase (RT) activity in the supernatants, Day 10 RT (OD) [1] [OD] | reverse transcriptase (RT) activity in the supernatants, Day 10 RT (OD) [2] [OD] | HIV-1 Syncytia (HIV-1 [3]; Experiment 1) | HIV-1 Syncytia (HIV-1 [3]; Experiment 2) | effect on HIV-1 infection, in words (HIV-1 [4]) | Day 7 RT SIV (SIV; Experiment 1) [OD] | Day 10 RT SIV (SIV; Experiment 1) [OD] | Day 7 RT SIV (SIV; Experiment 2) [OD] | Day 10 RT SIV (SIV; Experiment 2) [OD] | Day 7 RT HIV-2 (HIV-2; Experiment 1) [OD] | Day 10 RT HIV-2 (HIV-2; Experiment 1) [OD] | Day 7 RT HIV-2 (HIV-2; Experiment 2) [OD] | Day 10 RT HIV-2 (HIV-2; Experiment 2) [OD] | Day 10 RT HIV-1 (HIV-1 [5]; Experiment 1) [OD] | Day 7 RT HIV-1 (HIV-1 [5]; [7]) | Day 7 RT HIV-1 (HIV-1 [5]; Experiment 2) | Day 10 RT HIV-1 (HIV-1 [5]; Experiment 2) [OD] | other results |
| --- | --- | --- | --- | --- | --- | --- | --- | --- | --- | --- | --- | --- | --- | --- | --- | --- | --- | --- |
| Gly-Lys-Gly-NH2 (peptide) | 0.099 | 0.147 | – | – | – | – | – | – | – | – | – | – | – | – | – | – | – | – |
| Gly-Pro-Gln (Gly-Pro-Gln-NH2) [GPQ-NH2] | – | – | pos | pos | did not prevent HIV infection | 1.542 | 2.176 | 0.574 | 2.319 | 3.692 | 2.734 | 1.511 | 2.382 | 1.965 | 0.204 OD | 0.884 OD | 2.848 | – |
| Ala-Cys-Gln (Ala-Cys-Gln-NH2) [ACQ-NH2] | – | – | pos | pos | did not prevent HIV infection | 1.241 | 2.746 | 0.612 | 2.606 | 3.418 | 2.753 | 1.661 | 2.505 | 0.904 | 0.117 OD | 0.606 OD | 2.831 | – |
| KAL-NH2 (peptide) | 2.52 | 2.75 | – | – | – | – | – | – | – | – | – | – | – | – | – | – | – | – |
| Gly-His-Lys (Gly-His-Lys-NH2) [GHK-NH2] | – | – | pos | pos | failed to prevent infection and syncytia formation | 0.097 | 2.384 | 0.396 | 2.394 | 3.522 | 2.931 | 1.936 | 2.418 | 2.151 | 0.289 OD | 0.829 OD | 3.013 | – |
| ILK-NH2 (peptide) | 2.25 | 2.79 | – | – | – | – | – | – | – | – | – | – | – | – | – | – | – | – |
| Iso-Leu-Lys (Ile-Leu-Lys-NH2) [ILK-NH2] | – | – | pos | pos | – | 3.180 | 2.255 | 0.515 | 2.632 | 3.467 | 2.791 | 1.692 | 2.557 | 2.033 | 0.365 OD | 0.581 OD | 2.950 | – |
| KAR-NH2 (peptide) | 1.72 | 2.64 | – | – | – | – | – | – | – | – | – | – | – | – | – | – | – | – |
| NCCCC[C@H](NC(=O)CN)C(=O)NCC(N)=O [GKG-NH2, glycyl-lysyl-glycine amide] (H-Gly-Lys-Gly-NH2) | – | – | – | – | inhibited and/or prevented HIV-1 infection | – | – | – | – | – | – | – | – | – | – | – | – | effect on SIV infection, in words (SIV): inhibit or prevent HIV-2 and SIV infection; effect on HIV-2 infection, in words (HIV-2): inhibit or prevent HIV-2 and SIV infection |
| His-Lys-Ala (His-Lys-Ala-NH2) [HKA-NH2] | – | – | pos | pos | did not prevent HIV infection | 0.416 | 2.520 | 0.455 | 2.623 | 3.408 | 2.669 | 1.678 | 2.560 | 2.546 | 0.312 OD | 1.081 OD | 2.794 | – |
| ACQ-NH2 (peptide) | 2.75 | 2.75 | – | – | – | – | – | – | – | – | – | – | – | – | – | – | – | – |
| LKA-NH2 (peptide) | 2.45 | 2.77 | – | – | – | – | – | – | – | – | – | – | – | – | – | – | – | – |
| GPQ-NH2 (peptide) | 2.18 | 2.73 | – | – | – | – | – | – | – | – | – | – | – | – | – | – | – | – |
| Lys-Ala-Arg (Lys-Ala-Arg-NH2) [KAR-NH2] | – | – | pos | pos | – | 0.266 | 1.722 | 1.034 | 2.672 | 3.419 | 2.640 | 1.904 | 2.742 | 2.779 | 0.380 OD | 0.753 OD | 2.928 | – |
| Gly-Ala-Thr (Gly-Ala-Thr-NH2) [GAT-NH2] | – | – | pos | pos | failed to prevent infection and syncytia formation | 0.892 | 2.343 | 0.572 | 2.776 | 3.461 | 2.835 | 1.707 | 2.565 | 1.565 | 0.116 OD | 0.776 OD | 2.800 | – |
| Cys-Gln-Gly-NH2 (peptide) | 0.11 | 0.296 | – | – | – | – | – | – | – | – | – | – | – | – | – | – | – | – |
| GHK-NH2 (peptide) | 2.38 | 2.93 | – | – | – | – | – | – | – | – | – | – | – | – | – | – | – | – |
| GAT-NH2 (peptide) | 2.34 | 2.83 | – | – | – | – | – | – | – | – | – | – | – | – | – | – | – | – |
| ARV-NH2 (peptide) | 1.17 | 3 | – | – | – | – | – | – | – | – | – | – | – | – | – | – | – | – |
| cystyl-glutaminyl-glycine amide [CQG-NH2] | – | – | – | – | inhibited and/or prevented HIV-1 infection | – | – | – | – | – | – | – | – | – | – | – | – | effect on SIV infection, in words (SIV): inhibit or prevent HIV-2 and SIV infection; effect on HIV-2 infection, in words (HIV-2): inhibit or prevent HIV-2 and SIV infection |
| Ala-Arg-Val (Ala-Arg-Val-NH2) [ARV-NH2] | – | – | pos | pos | failed to prevent infection | 0.210 | 1.172 | 0.212 | 3.004 | 3.380 | 3.003 | 2.237 | 2.628 | 1.528 | 0.156 OD | 0.618 OD | 2.829 | – |
| HKA-NH2 (peptide) | 2.52 | 2.67 | – | – | – | – | – | – | – | – | – | – | – | – | – | – | – | – |
| Leu-Lys-Ala (Leu-Lys-Ala-NH2) [LKA-NH2] | – | – | pos | pos | did not prevent HIV infection | 3.577 | 2.452 | 0.724 | 2.797 | 3.649 | 2.769 | 1.689 | 2.637 | 2.429 | 0.568* OD | 0.894* OD | 2.989 | – |
| Lys-Ala-Leu (Lys-Ala-Leu-NH2) [KAL-NH2] | – | – | pos | pos | failed to prevent infection | 1.091 | 2.524 | 0.511 | 2.663 | 3.372 | 2.749 | 1.757 | 2.383 | 1.995 | 0.246 OD | 0.999 OD | 2.791 | – |
| Gly-Pro-Gln-NH2 [GPQ-NH2] | – | – | – | – | – | – | – | – | – | – | – | – | – | – | – | – | – | reverse transcriptase (RT) activity in the supernatants, Day 10 RT (OD) [6]: 1.97 OD |
| Ile-Leu-Lys-NH2 [ILK-NH2] | – | – | – | – | – | – | – | – | – | – | – | – | – | – | – | – | – | reverse transcriptase (RT) activity in the supernatants, Day 10 RT (OD) [6]: 2.03 OD |
| Gly-Lys-Gly-NH2 [Gly-Lys-Gly-NH2] | – | – | – | – | – | – | – | – | – | – | – | – | – | – | – | – | – | reverse transcriptase (RT) activity in the supernatants, Day 10 RT (OD) [6]: 0.074 OD |
| Leu-Lys-Ala-NH2 [LKA-NH2] | – | – | – | – | – | – | – | – | – | – | – | – | – | – | – | – | – | reverse transcriptase (RT) activity in the supernatants, Day 10 RT (OD) [6]: 2.43 OD |
| Gly-His-Lys-NH2 [GHK-NH2] | – | – | – | – | – | – | – | – | – | – | – | – | – | – | – | – | – | reverse transcriptase (RT) activity in the supernatants, Day 10 RT (OD) [6]: 2.15 OD |
